From PMC7521880 (European Journal of Medicinal Chemistry, 2020)

System: varicella-zoster virus (VZV, TK+ Oka strain)
Type: cell-based
Details: VZV in HEL cells; strain not specified

SMILES | Selectivity index (SI), ratio CC50 for HEL cells / EC50
CC(=O)OC[C@H]1O[C@@H](n2cc3c(C#CC4(O)c5ccccc5-c5ccccc54)c(-c4ccc(C)cc4)oc3nc2=O)C[C@@H]1OC(C)=O [Compound 6c, 3-(3′,5′-di-O-acetyl-2′-deoxy-β-D-ribofuranosyl)-5-((9-hydroxy-9H-fluoren-9-yl)ethynyl)-6-(4-methylphenyl)-2,3-dihydrofuro[2,3-d]pyrimidin-2-one] | ≤ 1
CC(=O)OC[C@H]1O[C@@H](n2cc3c(C#Cc4ccc(C)cc4)c(-c4ccc(C)cc4)oc3nc2=O)C[C@@H]1OC(C)=O [Compound 6h, 3-(3′,5′-di-O-acetyl-2′-deoxy-β-D-ribofuranosyl)-6-(4-methylphenyl)-5-((4-methylphenyl)ethynyl)-2,3-dihydrofuro[2,3-d]pyrimidin-2-one] | ≤ 1
CCCCCc1ccc(-c2oc3nc(=O)n([C@H]4C[C@H](OC(C)=O)[C@@H](COC(C)=O)O4)cc3c2C#CCO)cc1 [Compound 7a, 3-(3′,5′-di-O-acetyl-2′-deoxy-β-D-ribofuranosyl)-5-(3-hydroxyprop-1-yn-1-yl)-6-(4-pentylphenyl)-2,3-dihydrofuro[2,3-d]pyrimidin-2-one] | ≤ 1
CCCCCc1ccc(-c2oc3nc(=O)n([C@H]4C[C@H](OC(C)=O)[C@@H](COC(C)=O)O4)cc3c2C#CCCO)cc1 [Compound 7b, 3-(3′,5′-di-O-acetyl-2′-deoxy-β-D-ribofuranosyl)-5-(4-hydroxybut-1-yn-1-yl)-6-(4-pentylphenyl)-2,3-dihydrofuro[2,3-d]pyrimidin-2-one] | ≤ 1
